Values of other authors as cited in patent US4650854A, “Amide analogs of calcitonin” (USV Pharmaceutical Corporation, priority 1985, dated 1987).
Where no end group is shown, it is not given here.

Details: Monikawa et al., Experientia 32(9), 1104-1106 (1976)

| Substance | hypocalcemic potency |
| --- | --- |
| (1,7-α-L-aminosuberic acid)eel calcitonin | about 3400 Iu/mg |
| eel calcitonin (CSNLSTCVLGKLSQELHKLQTYPRTDVGAGTP; ends and bridges not checked; cysteine pairing not given here; UniProt P01262 1-32, looked up) [synthetic eel calcitonin, synthetic eel calcitonin, natural 32 amino acid calcitonin peptide] | around 4300 Iu/mg |
